Laboratory results reported in a compilation of properties of binary mixtures (doi:10.1016/j.jct.2016.06.015).

Assay: xn = mol fraction of the nth substance listed
Conditions: 100 kPa

CC[n+]1ccn(C)c1.F[B-](F)(F)F + C1COCCO1
viscosity [mPa·s]
Conditions | 293.15 K | 298.15 K | 303.15 K | 313.15 K | 323.15 K | 333.15 K | 343.15 K | 353.15 K
x2 = 0 | – | 41.5 | – | 24.8 | – | 14.5 | 11.7 | 9.58
x2 = 0.1664 | 35.8 | 29.8 | – | 18.5 | 14.3 | 11.1 | 8.96 | 7.38
x2 = 0.2149 | 32.1 | – | – | – | 13 | 10.3 | 8.38 | 6.91
x2 = 0.3162 | 24.9 | 21 | 18.1 | 13.6 | 10.6 | 8.52 | 6.97 | 5.81
x2 = 0.3591 | 22.2 | 18.8 | 16.2 | 12.3 | 9.69 | – | 6.41 | 5.37
x2 = 0.5077 | 13.8 | 12 | 10.5 | 8.21 | – | – | 4.53 | 3.86
x2 = 0.5453 | 12.2 | 10.6 | – | 7.33 | – | 4.9 | 4.12 | –
x2 = 0.6708 | 7.1 | 6.42 | 5.51 | 4.48 | 3.86 | 3.11 | 2.65 | 2.3

CS(C)=O + CC[n+]1ccn(C)c1.F[B-](F)(F)F
x1 = 1
Conditions | viscosity [mPa·s]
293.15 K | 2.21
298.15 K | 2.01
303.15 K | 1.84
313.15 K | 1.56
323.15 K | 1.34
333.15 K | 1.17
343.15 K | 1.03
353.15 K | 0.917

CC#N + CC[n+]1ccn(C)c1.F[B-](F)(F)F
x1 = 1
Conditions | viscosity [mPa·s]
293.15 K | 0.386
298.15 K | 0.37
313.15 K | 0.327
323.15 K | 0.302
333.15 K | 0.281
343.15 K | 0.262

CC[n+]1ccn(C)c1.F[B-](F)(F)F + CS(C)=O
viscosity [mPa·s]
Conditions | x2 = 0 | x2 = 0.0872 | x2 = 0.2021 | x2 = 0.2931 | x2 = 0.4098 | x2 = 0.4781 | x2 = 0.5718 | x2 = 0.6689 | x2 = 0.7866 | x2 = 0.8959
293.15 K | 50.5 | 43.1 | 35.1 | 29.5 | 22.8 | – | 14.5 | 10.3 | 6.32 | 3.84
298.15 K | 41.5 | 35.5 | 29.1 | 24.6 | – | 16.1 | 12.3 | 8.84 | 5.55 | 3.43
303.15 K | 34.5 | 29.7 | 24.5 | 20.8 | 16.3 | 13.8 | 10.6 | 7.69 | – | 3.09
313.15 K | – | 21.6 | 18 | – | 12.1 | 10.4 | 8.08 | 5.98 | 3.92 | 2.52
323.15 K | 18.6 | 16.3 | 13.7 | 11.8 | 9.43 | 8.09 | 6.37 | 4.78 | 3.21 | 2.13
333.15 K | 14.5 | 12.8 | 10.8 | 9.36 | 7.53 | 6.5 | 5.15 | 3.91 | 2.68 | 1.83
343.15 K | – | 10.3 | 8.73 | – | 6.16 | 5.33 | 4.24 | 3.24 | 2.28 | –
353.15 K | 9.58 | 8.4 | 7.18 | 6.29 | 5.15 | – | 3.59 | 2.77 | 1.97 | 1.42

CC[n+]1ccn(C)c1.F[B-](F)(F)F + OCCO
viscosity [mPa·s]
Conditions | x2 = 0 | x2 = 0.099 | x2 = 0.2174 | x2 = 0.283 | x2 = 0.4435 | x2 = 0.5237 | x2 = 0.5876 | x2 = 0.6954 | x2 = 0.7916 | x2 = 0.8751
293.15 K | 50.5 | 36.8 | 26.8 | 23.4 | 18 | 16.5 | 15.8 | – | 15 | 15.8
298.15 K | 41.5 | 30.7 | 22.6 | – | – | 13.8 | 13.1 | – | 12.3 | 12.9
303.15 K | – | 25.9 | 19.3 | 16.9 | 12.9 | 11.8 | 11.1 | 10.3 | 10.3 | 10.8
313.15 K | 24.8 | 19.1 | 14.3 | 12.7 | – | 8.77 | 8.22 | 7.56 | 7.43 | 7.71
323.15 K | 18.6 | 14.6 | 11.2 | 9.9 | – | 6.81 | – | 5.77 | 5.6 | 5.74
333.15 K | 14.5 | 11.5 | 8.98 | 7.96 | – | – | 5.05 | 4.55 | 4.37 | –
343.15 K | 11.7 | 9.32 | 7.34 | 6.53 | – | 4.47 | – | 3.69 | 3.51 | 3.5
353.15 K | – | 7.69 | 6.12 | 5.47 | 4.21 | 3.75 | – | – | – | 2.85

C1COCCO1 + CC[n+]1ccn(C)c1.F[B-](F)(F)F
x1 = 1
Conditions | viscosity [mPa·s]
293.15 K | 1.29
298.15 K | 1.18
303.15 K | 1.09
313.15 K | 0.934
333.15 K | 0.718
353.15 K | 0.577

OCCO + CC[n+]1ccn(C)c1.F[B-](F)(F)F
x1 = 1
Conditions | viscosity [mPa·s]
303.15 K | 14.3
313.15 K | 10
333.15 K | 5.33
353.15 K | 3.24

CC[n+]1ccn(C)c1.F[B-](F)(F)F + CC#N
viscosity [mPa·s]
Conditions | x2 = 0 | x2 = 0.0797 | x2 = 0.1787 | x2 = 0.2803 | x2 = 0.3682 | x2 = 0.4903 | x2 = 0.5753 | x2 = 0.7116 | x2 = 0.8301
293.15 K | 50.5 | 37.4 | – | 18.1 | 12.3 | 7.49 | 4.83 | 2.48 | 1.21
298.15 K | 41.5 | 31.1 | 21.4 | 15.6 | 10.7 | 6.64 | 4.38 | 2.29 | –
303.15 K | 34.5 | 26.2 | 18.3 | 13.5 | 9.45 | 5.94 | 4 | 2.11 | 1.08
313.15 K | 24.8 | 19.4 | 14 | – | – | 4.85 | 3.36 | 1.82 | 0.961
323.15 K | – | 14.9 | 11 | – | – | 4.05 | 2.87 | – | 0.866
333.15 K | 14.5 | 11.8 | 8.88 | – | 5.07 | 3.44 | 2.48 | – | 0.785
343.15 K | 11.7 | 9.6 | 7.29 | 5.68 | – | 2.97 | 2.17 | – | –
